Measured values as given in patent US20100292327A1, “TREATMENT OF ASPIRIN RESISTANCE WITH BETAINE AND/OR BETAINE ENRICHED MOLASSES” (priority 2007, published 2010).
“And” between values parts separate entries of the source, which are not always exact repeats. Identical values can stand only once. Like-named read-outs stand apart in the source and are kept apart here.

Tests used:
[1] = system: whole blood aggregation, ADP; assay: Whole blood aggregation (Multiplate) ADP test before and one hour after oral betaine (Example 11); type: in vivo, human (patients); settings: for ADP aggregation (AUC): individual patients (one line per patient), one hour after 4 g betaine oral, on aspirin 100 mg/day
Experimental: (§1) 20 patients attending Hospital cardiovascular consultation were enrolled for the study. Patients were all on 100 mg/day aspirin for their cardiovascular protection. Necessary ethical clearance was obtained from Hospital IRB.
(§2) Whole blood aggregation profile using Multiplate® instrument was assessed for each patient before and one hour after oral administration of 4 g of betaine. Blood was sampled on hirudin as anticoagulant.
(§3) Using the different test procedures available for the Multiplate® comprehensive information on platelet function and antiplatelet effects of betaine vs. basal values was assessed. Agonists were prepared in 1 ml solutions according to Multiplatc technical sheets and were used in the following volumes or concentrations: ASPI test: 20 μL, COL test: 20 μL, TRAP test: 20 μL, ADP test: 20 μL, RISTO test: 40 μL (1.2 mg/ml).

[2] = system: whole blood aggregation, Collagen; assay: Whole blood aggregation (Multiplate) COL test before and one hour after oral betaine (Example 11); type: in vivo, human (patients); settings: for Collagen aggregation (AUC): individual patients (one line per patient), one hour after 4 g betaine oral, on aspirin 100 mg/day
Experimental: as §1, §2, §3

[3] = system: platelet aggregation in whole blood, activation by TRAP-6; assay: Multiplate whole blood aggregometry, TRAP test, blood supplemented with betaine (Example 1); type: cell-based, human (CAD patients); parameters: TRAP aggregation / TRAP aggregation, mean: unit not given here; settings: for TRAP aggregation / TRAP aggregation, mean: betaine 50 μg/ml; for inhibition at 50 µg/mL: Homo sapiens, Platelet, betaine 50 μg/ml vs. saline
Experimental: (§4) Protocol Blood of 24 CAD patients on Aspirin or Aspirin+Clopidogrel is supplemented with saline or Betaine (50 μg/ml) and tested for Whole Blood Aggregometry using a Multiplate® (Dynabyte Informations System GmbH, Munich) whole blood aggregometer different agonists where used i.e.:
(§5) ASPI test: Activation by arachidonic acid to detect Aspirin effects. COL test: Collagen activates the collagen receptor, which leads to a release of endogenous arachidonic acid, which is converted to TXA2 and activates the platelet. ADP test: ADP stimulates platelet activation by the ADP receptors. The most important ADP receptor (P2Y12) is blocked by clopidogrel, prasugrel and ticlopidine. TRAP test: TRAP-6 stimulates the thrombin receptor on the platelet surface. TRAP test allows detecting GPIIb/IIIa antagonists.

[4] = system: platelet aggregation in whole blood, activation by arachidonic acid; assay: Multiplate whole blood aggregometry, ASPI test, blood supplemented with betaine (Example 1); type: cell-based, human (CAD patients); parameters: AspiTest aggregation / AspiTest aggregation, mean: unit not given here; settings: for AspiTest aggregation / AspiTest aggregation, mean: betaine 50 μg/ml; for inhibition at 50 µg/mL: Homo sapiens, Platelet
Experimental: as §4, §5

[5] = system: whole blood aggregation, Ristocetin; assay: Whole blood aggregation (Multiplate) RISTO test before and one hour after oral betaine (Example 11); type: in vivo, human (patients); settings: for Ristocetin aggregation (AUC): individual patients (one line per patient), one hour after 4 g betaine oral, on aspirin 100 mg/day
Experimental: as §1, §2, §3

[6] = system: whole blood aggregation, TRAP test; assay: Whole blood aggregation (Multiplate) TRAP test before and one hour after oral betaine (Example 11); type: in vivo, human (patients); settings: for TRAP aggregation (AUC): individual patients (one line per patient), one hour after 4 g betaine oral, on aspirin 100 mg/day
Experimental: as §1, §2, §3

[7] = system: platelet aggregation in whole blood, activation by ADP; assay: Multiplate whole blood aggregometry, ADP test, blood supplemented with betaine (Example 1); type: cell-based, human (CAD patients); parameters: ADP aggregation / ADP aggregation, mean: unit not given here; settings: for ADP aggregation / ADP aggregation, mean: betaine 50 μg/ml; for inhibition at 50 µg/mL: Homo sapiens, Platelet, betaine 50 μg/ml vs. saline
Experimental: as §4, §5

[8] = system: platelet aggregation in whole blood, activation by collagen; assay: Multiplate whole blood aggregometry, COL test, blood supplemented with betaine (Example 1); type: cell-based, human (CAD patients); parameters: Collagen aggregation / Collagen aggregation, mean: unit not given here; settings: for Collagen aggregation / Collagen aggregation, mean: betaine 50 μg/ml; for inhibition at 50 µg/mL: Homo sapiens, Platelet
Experimental: as §4, §5

[9] = system: whole blood aggregation, AspiTest (arachidonic acid); assay: Whole blood aggregation (Multiplate) ASPI test before and one hour after oral betaine (Example 11); type: in vivo, human (patients); settings: for AspiTest aggregation (AUC): individual patients (one line per patient), one hour after 4 g betaine oral, on aspirin 100 mg/day
Experimental: as §1, §2, §3

[10] = 20 patients, after 4 g betaine by oral route
[11] = ASA responders, after 4 g betaine oral
[12] = ASA poor responders, after 4 g betaine oral
[13] = after 4 g betaine oral, patients on aspirin 100 mg/day
[14] = ASA and ASA/clopidogrel non responders, individual patients (one line per patient)
[15] = individual patients # 1-24 (one line per patient), blood of CAD patients on aspirin or aspirin+clopidogrel
[16] = betaine 50 μg/ml vs. saline, p<0.05

Compound: C[N+](C)(C)CC(=O)O [betaine, glycine betaine of formula (CH3)3N^+(CH2) COO^−]
- Difference Vs. basal, ADP [1, 10]: 2%
- Mean of AUC aggregations, ADP ([1]; 20 patients, after 4 g betaine by oral route, basal mean 55.55): 56.5
- Difference Vs. basal, ADP ([1]; ASA poor responders, after 4 g betaine oral, P Student 0.5): −7%
- ADP aggregation (AUC) ([1]; ASA poor responders): 71 and 53 and 66 and 60 and 38 and 32 and 70 and 40
- Difference Vs. basal, ADP [1, 11]: 8%
- ADP aggregation (AUC) ([1]; ASA responders): 2 and 121 and 64 (2×) and 80 and 93 and 14 and 51 and 47 and 44 and 75 and 45
- ADP aggregation, mean ([1]; mean of 8 ASA poor responders after 4 g betaine oral, basal mean 57.75): 53.75
- ADP aggregation, mean ([1]; mean of 12 ASA responders after 4 g betaine oral, basal mean 54.08): 58.33
- Difference Vs. basal, Collagen ([2]; 20 patients, after 4 g betaine by oral route, P Student 0.045): −19%
- Mean of AUC aggregations, Collagen ([2]; 20 patients, after 4 g betaine by oral route, basal mean 30.35): 24.65
- Difference Vs. basal, Collagen [2, 12]: −1%
- Collagen aggregation (AUC) ([2]; ASA poor responders): 47 and 48 and 32 and 18 and 10 and 58 and 65 and 57
- Difference Vs. basal, Collagen ([2]; ASA responders, after 4 g betaine oral, P Student 0.039): −41%
- Collagen aggregation (AUC) ([2]; ASA responders): 11 and 7 and 29 and 12 and 23 and 4 and 10 (2×) and 3 (2×) and 30 and 16
- effect on platelet function, collagen aggregation [2, 13]: ameliorated significantly
- Collagen aggregation, mean ([2]; mean of 8 ASA poor responders after 4 g betaine oral, basal mean 42.375): 41.875
- Collagen aggregation, mean ([2]; mean of 12 ASA responders after 4 g betaine oral, basal mean 22.33): 13.17
- TRAP aggregation [3, 14]: 155 and 141 and 93 and 179 and 120 and 100 and 67 and 103 (2×) and 29
- inhibition at 50 µg/mL ([3]; ASA and ASA/clopidogrel non responders, P (Student) 0.093, read-out: Additional inhibition, TRAP): 19%
- inhibition at 50 µg/mL ([3]; all patients, P (Student) 0.0392, read-out: Betaine additional inhibition, TRAP): 13%
- TRAP aggregation [3, 15]: 60 (2×) and 102 and 79 and 67 and 103 (2×) and 87 and 84 and 31 and 153 and 152 and 29 and 155 and 141 and 83 and 30 and 22 and 93 and 179 and 120 and 100 and 127
- TRAP aggregation, mean ([3]; mean of 10 ASA and ASA/clopidogrel non responders, saline mean 133.7): 109
- TRAP aggregation, mean ([3]; mean of patients, saline mean 108): 93.91
- AspiTest aggregation [4, 14]: 121 and 75 and 97 and 125 and 87 and 94 (2×) and 84 and 49 and 61
- inhibition at 50 µg/mL ([4]; ASA and ASA/clopidogrel non responders, betaine 50 μg/ml vs. saline, P (Student) 0.0043, read-out: Additional inhibition, AspiTest): 20%
- inhibition at 50 µg/mL ([4]; all 24 patients, betaine 50 μg/ml vs. saline, P (Student) 0.0109, read-out: Betaine additional inhibition, AspiTest): 17%
- synergistic effect with aspirin and/or clopidogrel on AspiTest [4, 16]: significant
- AspiTest aggregation [4, 15]: 10 and 22 and 54 and 18 and 84 and 94 (2×) and 62 and 29 and 21 and 49 and 17 (2×) and 5 and 61 and 121 and 13 and 75 and 12 and 6 and 97 and 125 and 87 and 77
- AspiTest aggregation, mean ([4]; mean of 10 ASA and ASA/clopidogrel non responders, saline mean 111.1): 88.7
- AspiTest aggregation, mean ([4]; mean of 24 patients, saline mean 62.54): 52.08
- Difference Vs. basal, Ristocetin ([5]; 20 patients, after 4 g betaine by oral route, P Student 0.012): −37%
- Mean of AUC aggregations, Ristocetin ([5]; 20 patients, after 4 g betaine by oral route, basal mean 53.4): 33.6
- Difference Vs. basal, Ristocetin ([5]; ASA poor responders, after 4 g betaine oral, P Student 0.22): −24%
- Ristocetin aggregation (AUC) ([5]; ASA poor responders): 62 and 78 and 123 and 81 and 30 and 2 and 43 and 11
- Difference Vs. basal, Ristocetin ([5]; ASA responders, after 4 g betaine oral, P Student 0.031): −52%
- Ristocetin aggregation (AUC) ([5]; ASA responders): 39 and 10 and 42 and 23 and 35 and 6 and 3 and 21 and 14 (2×) and 26 and 9
- effect on platelet function, ristocetin aggregation (agglutination) [5, 13]: ameliorated significantly
- Ristocetin aggregation, mean ([5]; mean of 8 ASA poor responders after 4 g betaine oral, basal mean 70.75): 53.75
- Ristocetin aggregation, mean ([5]; mean of 12 ASA responders after 4 g betaine oral, basal mean 41.83): 20.17
- Difference Vs. basal, TRAP [6, 10]: 0%
- Mean of AUC aggregations, TRAP ([6]; 20 patients, after 4 g betaine by oral route, basal mean 91.95): 91.9
- Difference Vs. basal, TRAP [6, 12]: 3%
- TRAP aggregation (AUC) ([6]; ASA poor responders): 106 (2×) and 66 (2×) and 133 and 103 and 60 and 95
- Difference Vs. basal, TRAP [6, 11]: −2%
- TRAP aggregation (AUC) ([6]; ASA responders): 64 and 154 and 115 and 136 and 131 and 29 and 80 and 77 (2×) and 67 and 104 and 69
- TRAP aggregation, mean ([6]; mean of 8 ASA poor responders after 4 g betaine oral, basal mean 89): 91.875
- TRAP aggregation, mean ([6]; mean of 12 ASA responders after 4 g betaine oral, basal mean 93.92): 91.92
- ADP aggregation [7, 14]: 173 and 70 and 89 (2×) and 86 and 90 and 63 and 77 and 83 and 56
- inhibition at 50 µg/mL ([7]; ASA and ASA/clopidogrel non responders, P (Student) 0.449, read-out: Additional inhibition, ADP): 5%
- inhibition at 50 µg/mL ([7]; all patients, P (Student) 0.067, read-out: Betaine additional inhibition, ADP): 8%
- ADP aggregation [7, 15]: 44 and 1 and 68 and 46 and 63 and 77 and 82 and 57 and 83 and 100 and 81 and 56 and 173 and 4 and 70 and 29 and 6 and 13 and 89 (2×) and 86 and 90 and 115
- ADP aggregation, mean ([7]; mean of 10 ASA and ASA/clopidogrel non responders, saline mean 91.8): 87.6
- ADP aggregation, mean ([7]; mean of patients, saline mean 71.78): 66.17
- Collagen aggregation [8, 14]: 42 and 30 and 76 and 91 (2×) and 75 (2×) and 88 and 21 and 24
- inhibition at 50 µg/mL ([8]; ASA and ASA/clopidogrel non responders, betaine 50 μg/ml vs. saline, P (Student) 0.0242, read-out: Additional inhibition, Collagen): 17%
- inhibition at 50 µg/mL ([8]; all 24 patients, betaine 50 μg/ml vs. saline, P (Student) 0.0006, read-out: Betaine additional inhibition, Collagen): 20%
- synergistic effect with aspirin and/or clopidogrel on collagen [8, 16]: significant
- Collagen aggregation [8, 15]: 4 and 3 (2×) and 35 and 21 (2×) and 75 (2×) and 91 (2×) and 26 and 34 and 29 and 59 and 25 and 24 and 42 and 2 and 30 and 8 and 17 and 76 and 88 and 46
- Collagen aggregation, mean ([8]; mean of 10 ASA and ASA/clopidogrel non responders, saline mean 74.4): 61.3
- Collagen aggregation, mean ([8]; mean of 24 patients, saline mean 48.46): 38.54
- Difference Vs. basal, AspiTest ([9]; 20 patients, after 4 g betaine by oral route, P Student 0.57): 5%
- Mean of AUC aggregations, AspiTest ([9]; 20 patients, after 4 g betaine by oral route, basal mean 23.05): 24.15
- Difference Vs. basal, AspiTest [9, 12]: 3%
- AspiTest aggregation (AUC) ([9]; ASA poor responders): 24 and 74 and 81 and 69 and 46 and 27 and 35 and 52
- Difference Vs. basal, AspiTest ([9]; ASA responders, after 4 g betaine oral, P Student 0.6): 14%
- AspiTest aggregation (AUC) ([9]; ASA responders): 11 and 7 and 4 (2×) and 9 (2×) and 5 and 1 and 3 (2×) and 6 and 13
- AspiTest aggregation, mean ([9]; mean of 8 ASA poor responders after 4 g betaine oral, basal mean 49.375): 51
- AspiTest aggregation, mean ([9]; mean of 12 ASA responders after 4 g betaine oral, basal mean 5.5): 6.25
